# Measured values: patent US11078170B2 (Assembly Biosciences, Inc., priority 2017, dated 2021)
# Tested on: HBV viral production from HepAD38 cells
# Test: Activity of test compounds on viral production from HepAD38 cells (viral load by qPCR of HBV core sequence in supernatant)
# Type: cell-based
# Details: Hepatitis B virus, 120 h, 5 days incubation, HBV DNA in supernatant by qPCR, top concentration 10 μM, read-out: Viral Load EC50 Activity range
# Summary of the method: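 EC50 and CC50 come from four-parameter fits of supernatant viral load and CellTiter-Glo viability, respectively. Viral load was measured by core-region TaqMan qPCR against HBV DNA standards and compared with DMSO controls. Tet-free HepAD38 cells (50,000/well, 2% FBS) were exposed to compound, highest 10 μM, for 5 days at 37° C.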
row,SMILES,EC50 [µM]
1,"CCc1sc([C@H]2C[C@@H](C(=O)Nc3ccc(F)c(Cl)c3)N(C)S(=O)(=O)N2)cc1-c1cnn(C)c1 [HBV-CSU-305-ISO-I, Cis-N-(3-Chloro-4-fluorophenyl)-5-(5-ethyl-4-(1-methyl-1H-pyrazol-4-yl)thiophen-2-yl)-2-methyl-1,2,6-thiadiazinane-3-carboxamide 1,1-dioxide]",< 1
2,"CN1C(C(=O)Nc2cc(F)c(F)c(F)c2)CC(c2ccc(F)cc2)NS1(=O)=O (racemic) [HBV-CSU-212, Cis-5-(4-Fluorophenyl)-2-methyl-N-(3,4,5-trifluorophenyl)-1,2,6-thiadiazinane-3-carboxamide 1,1-dioxide]",< 1
3,"Cc1ncc([C@H]2C[C@@H](C(=O)Nc3ccc(F)c(Cl)c3)N(C)S(=O)(=O)N2)s1 [HBV-CSU-224-ISO-I, Cis-N-(3-Chloro-4-fluorophenyl)-2-methyl-5-(2-methylthiazol-5-yl)-1,2,6-thiadiazinane-3-carboxamide 1,1-dioxide]",< 1
4,"C#CCN1[C@H](C(=O)Nc2ccc(F)c(Cl)c2)C[C@H](c2nccs2)NS1(=O)=O (relative stereo) [HBV-CSU-089-ISO-I, Cis-N-(3-chloro-4-fluorophenyl)-2-(prop-2-yn-1-yl)-5-(thiazol-2-yl)-1,2,6-thiadiazinane-3-carboxamide 1,1-dioxide]",< 1
5,"Cc1nn(C)cc1-c1csc([C@@H]2C[C@H](C(=O)Nc3ccc(F)c(Cl)c3)N(C)S(=O)(=O)N2)c1 (relative stereo) [HBV-CSU-316-ISO-II, Cis-N-(3-chloro-4-fluorophenyl)-5-(4-(1,3-dimethyl-1H-pyrazol-4-yl)thiophen-2-yl)-2-methyl-1,2,6-thiadiazinane-3-carboxamide 1,1-dioxide]",< 1
6,"CC(C)(C)OCCN1C(C(=O)Nc2ccc(F)c(Cl)c2)CC(c2nccs2)NS1(=O)=O (racemic) [HBV-CSU-071, Cis-2-(2-(tert-Butoxy)ethyl)-N-(3-chloro-4-fluorophenyl)-5-(thiazol-2-yl)-1,2,6-thiadiazinane-3-carboxamide 1,1-dioxide]",1 to 5
7,"CN1[C@@H](C(=O)Nc2ccc(F)c(Cl)c2)C[C@@H](c2ccc(-c3cncn3C)s2)NS1(=O)=O [HBV-CSU-267-ISO-II, Cis-N-(3-Chloro-4-fluorophenyl)-2-methyl-5-(5-(1-methyl-1H-imidazol-5-yl)thiophen-2-yl)-1,2,6-thiadiazinane-3-carboxamide 1,1-dioxide]",< 1
8,"CN1C(C(=O)Nc2ccc(F)c(Cl)c2)CC(c2nc(Br)cs2)NS1(=O)=O (racemic) [HBV-CSU-150, Cis-5-(4-Bromothiazol-2-yl)-N-(3-chloro-4-fluorophenyl)-2-methyl-1,2,6-thiadiazinane-3-carboxamide 1,1-dioxide]",< 1
9,"CN1[C@@H](C(=O)Nc2ccc(F)c(Cl)c2)C[C@@H](c2cc(-c3ncn(C)n3)cs2)NS1(=O)=O [HBV-CSU-326-ISO-II, Cis-N-(3-chloro-4-fluorophenyl)-2-methyl-5-(4-(1-methyl-1H-1,2,4-triazol-3-yl)thiophen-2-yl)-1,2,6-thiadiazinane-3-carboxamide 1,1-dioxide]",> 5
10,"CN1[C@H](C(=O)Nc2ccc(F)c(Cl)c2)C[C@H](c2ccc(F)cc2)NS1(=O)=O [HBV-CSU-112-ISO-I, Cis-N-(3-Chloro-4-fluorophenyl)-5-(4-fluorophenyl)-2-methyl-1,2,6-thiadiazinane-3-carboxamide 1,1-dioxide]",< 1
11,"CN1[C@@H](C(=O)Nc2ccc(F)c(Cl)c2)C[C@@H](c2cc(-c3ccc(C#N)c(F)c3)cs2)NS1(=O)=O [HBV-CSU-164-ISO-II, Cis-N-(3-chloro-4-fluorophenyl)-5-(4-(4-cyano-3-fluorophenyl)thiophen-2-yl)-2-methyl-1,2,6-thiadiazinane-3-carboxamide 1,1-dioxide]",> 5
12,"CN1[C@H](C(=O)Nc2ccc(F)c(Cl)c2)C[C@H](c2ccc(-c3cn(C)cn3)s2)NS1(=O)=O [HBV-CSU-266-ISO-I, (3S,5R)-N-(3-chloro-4-fluorophenyl)-2-methyl-5-(5-(1-methyl-1H-imidazol-4-yl)thiophen-2-yl)-1,2,6-thiadiazinane-3-carboxamide 1,1-dioxide]",< 1
13,CN1C(C(=O)Nc2ccc(F)c(Cl)c2)CC(c2ccc(-c3cn[nH]c3)s2)NS1(=O)=O (stereo not shown) [HBV-CSU-244],< 1
14,"COCCCN1[C@H](C(=O)Nc2ccc(F)c(Cl)c2)C[C@H](c2nccs2)NS1(=O)=O [HBV-CSU-077-ISO-II, Cis-N-(3-Chloro-4-fluorophenyl)-2-(3-methoxypropyl)-5-(thiazol-2-yl)-1,2,6-thiadiazinane-3-carboxamide 1,1-dioxide]",< 1
15,"CN1C(C(=O)Nc2ccc(F)c(Cl)c2)CC(c2ccc(O)cc2)NS1(=O)=O (stereo not drawn) [HBV-CSU-201, Cis-N-(3-Chloro-4-fluorophenyl)-5-(4-hydroxyphenyl)-2-methyl-1,2,6-thiadiazinane-3-carboxamide 1,1-dioxide]",< 1
16,"CN1[C@H](C(=O)Nc2ccc(F)c(Cl)c2)C[C@H](c2ccc(-c3ccccn3)s2)NS1(=O)=O [HBV-CSU-160-ISO-I, Cis-N-(3-chloro-4-fluorophenyl)-2-methyl-5-(5-(pyridin-2-yl)thiophen-2-yl)-1,2,6-thiadiazinane-3-carboxamide 1,1-dioxide]",< 1

row,SMILES,EC50 [µM]
1,"CN1[C@@H](C(=O)Nc2ccc(F)c(Cl)c2)C[C@H](c2ccc(Br)s2)NS1(=O)=O [HBV-CSU-114-Trans-ISO-I, (3R,5R)-5-(5-bromothiophen-2-yl)-N-(3-chloro-4-fluorophenyl)-2-methyl-1,2,6-thiadiazinane-3-carboxamide 1,1-dioxide]",1 to 5
2,"CN1[C@@H](C(=O)Nc2ccc(F)c(Cl)c2)C[C@@H](c2ccc(-c3cncs3)s2)NS1(=O)=O [HBV-CSU-268-ISO-II, Cis-N-(3-Chloro-4-fluorophenyl)-2-methyl-5-(5-(thiazol-5-yl)thiophen-2-yl)-1,2,6-thiadiazinane-3-carboxamide 1,1-dioxide]",> 5
3,CN1[C@@H](C(=O)Nc2ccc(F)c(Cl)c2)C[C@@H](c2cc(-c3cccs3)cs2)NS1(=O)=O [HBV-CSU-170-ISO-II],< 1
4,"O=C(Nc1ccc(F)c(Cl)c1)[C@@H]1C[C@H](c2nccs2)NS(=O)(=O)N1 [HBV-CSU-096-ISO-II, Cis-N-(3-Chloro-4-fluorophenyl)-5-(thiazol-2-yl)-1,2,6-thiadiazinane-3-carboxamide 1,1-dioxide]",< 1
5,"CN1[C@H](C(=O)Nc2ccc(F)c(Cl)c2)C[C@H](c2ccc(-c3ccc(C#N)c(F)c3)s2)NS1(=O)=O [HBV-CSU-156-ISO-I, Cis-N-(3-chloro-4-fluorophenyl)-5-(5-(4-cyano-3-fluorophenyl)thiophen-2-yl)-2-methyl-1,2,6-thiadiazinane-3-carboxamide 1,1-dioxide]",< 1
6,"CN1[C@@H](C(=O)Nc2ccc(F)c(Cl)c2)C[C@@H](c2cccc(Cl)c2)NS1(=O)=O [HBV-CSU-261-ISO-II, Cis-N-(3-Chloro-4-fluorophenyl)-5-(3-chlorophenyl)-2-methyl-1,2,6-thiadiazinane-3-carboxamide 1,1-dioxide]",> 5
7,"CN1[C@H](C(=O)Nc2ccc(F)c(Cl)c2)C[C@H](c2cc(-c3cncnc3)cs2)NS1(=O)=O [HBV-CSU-290-ISO-I, Cis-N-(3-chloro-4-fluorophenyl)-2-methyl-5-(4-(pyrimidin-5-yl)thiophen-2-yl)-1,2,6-thiadiazinane-3-carboxamide 1,1-dioxide]",< 1
8,"CN1C(C(=O)Nc2ccccc2)CC(c2cccs2)NS1(=O)=O (stereo not drawn) [HBV-CSU-006, Cis-2-Methyl-N-phenyl-5-(thiophen-2-yl)-1,2,6-thiadiazinane-3-carboxamide 1,1-dioxide]",< 1
9,"CC(C)n1cc(-c2ccc([C@@H]3C[C@H](C(=O)Nc4ccc(F)c(Cl)c4)N(C)S(=O)(=O)N3)s2)cn1 [HBV-CSU-292-ISO-II, Cis-N-(3-chloro-4-fluorophenyl)-5-(5-(1-isopropyl-1H-pyrazol-4-yl)thiophen-2-yl)-2-methyl-1,2,6-thiadiazinane-3-carboxamide 1,1-dioxide]",1 to 5
10,"CN1C(C(=O)Nc2cccc(C(F)(F)F)c2)CC(c2cccs2)NS1(=O)=O (stereo not drawn) [HBV-CSU-012, Cis-2-Methyl-5-(thiophen-2-yl)-N-(3-(trifluoromethyl)phenyl)-1,2,6-thiadiazinane-3-carboxamide 1,1-dioxide]",1 to 5
11,"CN1[C@@H](C(=O)Nc2ccc(F)c(Cl)c2)C[C@@H](c2ncc(-c3ccc(NS(C)(=O)=O)cc3)s2)NS1(=O)=O [HBV-CSU-179-ISO-II, Cis-N-(3-Chloro-4-fluorophenyl)-2-methyl-5-(5-(4-(methylsulfonamido)phenyl)thiazol-2-yl)-1,2,6-thiadiazinane-3-carboxamide 1,1-dioxide]",1 to 5
12,"COCCN1[C@H](C(=O)Nc2ccc(F)c(Cl)c2)C[C@H](c2nccs2)NS1(=O)=O [HBV-CSU-058-ISO-II, Cis-N-(3-chloro-4-fluorophenyl)-2-(2-methoxyethyl)-5-(thiazol-2-yl)-1,2,6-thiadiazinane-3-carboxamide 1,1-dioxide]",< 1
13,"CN1[C@@H](C(=O)Nc2ccc(F)c(Cl)c2)C[C@@H](c2ccc(C(=O)O)cc2)NS1(=O)=O [HBV-CSU-218-ISO-II, Cis-4-(5-((3-Chloro-4-fluorophenyl)carbamoyl)-6-methyl-1,1-dioxido-1,2,6-thiadiazinan-3-yl)benzoic acid]",1 to 5
14,"CN1C(C(=O)Nc2ccc(F)c(Cl)c2)CC(c2ccc(C(F)(F)F)s2)NS1(=O)=O (racemic) [HBV-CSU-219, Cis-N-(3-Chloro-4-fluorophenyl)-2-methyl-5-(5-(trifluoromethyl)thiophen-2-yl)-1,2,6-thiadiazinane-3-carboxamide 1,1-dioxide]",< 1
15,"CN1[C@@H](C(=O)Nc2ccc(F)c(Br)c2)C[C@@H](c2ccc(F)cc2)NS1(=O)=O [HBV-CSU-211-ISO-II, Cis-N-(3-Bromo-4-fluorophenyl)-5-(4-fluorophenyl)-2-methyl-1,2,6-thiadiazinane-3-carboxamide 1,1-dioxide]",> 5
